Test [1] concerns the target T1, TBK1 (Homo sapiens, UniProt Q9UHD2).
T1 construct: purchased Promega (Invitrogen is also named in the same bracket) V4158; PR8031B; V3991 (not assigned to the two kinases)
T1 sequence (Q9UHD2 1-729): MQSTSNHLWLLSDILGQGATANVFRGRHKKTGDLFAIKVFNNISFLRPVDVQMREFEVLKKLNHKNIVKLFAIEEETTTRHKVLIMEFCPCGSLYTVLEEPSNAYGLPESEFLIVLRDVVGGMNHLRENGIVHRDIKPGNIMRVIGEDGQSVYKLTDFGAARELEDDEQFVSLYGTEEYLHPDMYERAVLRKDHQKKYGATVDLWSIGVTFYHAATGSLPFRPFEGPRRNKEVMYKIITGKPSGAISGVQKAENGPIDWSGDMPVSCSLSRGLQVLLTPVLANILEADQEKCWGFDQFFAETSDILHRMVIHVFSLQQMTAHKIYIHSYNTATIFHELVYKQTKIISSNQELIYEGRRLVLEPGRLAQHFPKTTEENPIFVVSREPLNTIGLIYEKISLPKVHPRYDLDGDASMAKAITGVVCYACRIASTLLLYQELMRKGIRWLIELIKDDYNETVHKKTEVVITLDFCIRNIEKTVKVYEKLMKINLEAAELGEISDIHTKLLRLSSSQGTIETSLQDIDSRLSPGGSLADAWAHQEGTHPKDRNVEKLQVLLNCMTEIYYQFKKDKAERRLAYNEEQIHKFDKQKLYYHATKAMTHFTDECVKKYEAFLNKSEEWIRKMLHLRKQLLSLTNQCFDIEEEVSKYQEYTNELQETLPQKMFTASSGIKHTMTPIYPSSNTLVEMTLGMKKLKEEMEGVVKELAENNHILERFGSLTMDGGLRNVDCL
Nature of the test: ADP-Glo Kinase Assay, inhibition activity on TBK1. The format is biochemical. The method in brief:
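In 40 mM Tris pH 7.5 with 20 mM MgCl2 and 0.1 mg/mL BSA, each enzyme (IKKε or TBK1 kinase system) was run according to the manufacturer's protocol. ADP formed was detected by ADP-Glo luminescence.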

Test [2] concerns the target T2, IKKε (Homo sapiens, UniProt Q14164).
T2 construct: purchased Promega and/or Invitrogen V4158; PR8031B; V3991 (not assigned to the two kinases)
T2 sequence (Q14164 1-716): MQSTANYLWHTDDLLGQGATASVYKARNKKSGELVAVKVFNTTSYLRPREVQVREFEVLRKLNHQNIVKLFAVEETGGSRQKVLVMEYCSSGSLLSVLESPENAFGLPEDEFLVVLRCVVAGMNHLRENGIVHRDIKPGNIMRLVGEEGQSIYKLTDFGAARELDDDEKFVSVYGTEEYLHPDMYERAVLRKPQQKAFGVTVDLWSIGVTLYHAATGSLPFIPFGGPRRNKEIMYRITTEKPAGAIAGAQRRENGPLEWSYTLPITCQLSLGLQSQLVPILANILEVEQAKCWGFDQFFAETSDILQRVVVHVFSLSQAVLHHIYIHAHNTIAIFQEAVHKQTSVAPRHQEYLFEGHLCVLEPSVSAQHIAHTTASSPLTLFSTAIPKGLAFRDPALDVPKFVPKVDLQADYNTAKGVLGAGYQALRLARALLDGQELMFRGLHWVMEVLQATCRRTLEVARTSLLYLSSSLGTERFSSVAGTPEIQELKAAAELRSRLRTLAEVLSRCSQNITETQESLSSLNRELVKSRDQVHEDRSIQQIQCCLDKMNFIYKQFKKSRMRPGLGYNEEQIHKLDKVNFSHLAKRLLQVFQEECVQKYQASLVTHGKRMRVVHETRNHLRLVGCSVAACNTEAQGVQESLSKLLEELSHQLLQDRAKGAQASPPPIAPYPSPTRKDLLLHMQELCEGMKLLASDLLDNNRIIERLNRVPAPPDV
Briefly: ADP-Glo Kinase Assay, inhibition activity on IKKε. It counts as biochemical. On the procedure: Inhibition activities on IKKϵ and TBK1 were evaluated using the compounds of Examples 1 to 250.
The inhibition activities on IKKϵ and TBK1 were measured by a luminometer, IKKϵ/TBK1 Kinase Enzyme System (Promega, Ca# V4158; Invitrogen, PR8031B, Promega, Ca# V3991) and ADP-Glo Kinase Assay using ADP-Glo™ Kinase Analysis Kit (Promega, Ca# V9101) and a kinase reaction buffer [40 mM Tris(pH 7.5), 20 mM MgCl2, 0.1 mg/mL BSA] in accordance with the manufacturer's protocol.

As usually defined, the IC50 is the concentration at which inhibition is half-maximal. A high value points to weaker potency in that assay. For `CC1C=C(c2c[nH]c3ncc(-c4ccc(CN5CCN(C)CC5)s4)cc23)CCN1C(=O)NC1CCCC1` (racemic) [Example 107, N-cyclopentyl-2-methyl-4-(5-(5-((4-methylpiperazin-1-yl)methyl)thiophen-2-yl)-1H-pyrrolo[2,3-b]pyridin-3-yl)-5,6-dihydropyridine-1(2H)-carboxamide], the IC50 in test [1] was found to be 2.7 nM; in test [2], 3.2 nM. On the same counts, the results for `CN1CC=C(c2c[nH]c3ncc(-c4ccc(CN5CCOCC5)s4)cc23)CC1` [Example 1, 4-((5-(3-(1-Methyl-1,2,3,6-tetrahydropyridin-4-yl)-1H-pyrrolo[2,3-b]pyridin-5-yl)thiophen-2-yl)methyl)morpholine] are 6860 nM and over 10000 nM. The corresponding values for `COc1ccc(-c2cnc3[nH]cc(C4=CCN(C)CC4)c3c2)cc1OC` [Example 2, 5-(3,4-Dimethoxyphenyl)-3-(1-methyl-1,2,3,6-tetrahydropyridin-4-yl)-1H-pyrrolo[2,3-b]pyridine] are 9040 nM and over 10000 nM. The corresponding values for `CCN1CC=C(c2c[nH]c3ncc(-c4ccc(OC)c(OC)c4)cc23)CC1` [Example 3, 5-(3,4-Dimethoxyphenyl)-3-(1-ethyl-1,2,3,6-tetrahydropyridin-4-yl)-1H-pyrrolo[2,3-b]pyridine] are 5930 nM and over 10000 nM. In the case of `CCCN1CC=C(c2c[nH]c3ncc(-c4ccc(OC)c(OC)c4)cc23)CC1` [Example 4, 5-(3,4-Dimethoxyphenyl)-3-(1-propyl-1,2,3,6-tetrahydropyridin-4-yl)-1H-pyrrolo[2,3-b]pyridine], the figures for the concentration for half-maximal inhibition (IC50) in test [1] and in test [2] were 3230 nM and 5140 nM, respectively. The corresponding values for `COc1ccc(-c2cnc3[nH]cc(C4=CCN(CC(C)C)CC4)c3c2)cc1OC` [Example 5, 5-(3,4-Dimethoxyphenyl)-3-(1-isobutyl-1,2,3,6-tetrahydropyridin-4-yl)-1H-pyrrolo[2,3-b]pyridine] are 1560 nM and 2750 nM.

Take `CCN1CC=C(c2c[nH]c3ncc(-c4ccc(CN5CCOCC5)s4)cc23)CC1` [Example 6, 4-((5-(3-(1-Ethyl-1,2,3,6-tetrahydropyridin-4-yl)-1H-pyrrolo[2,3-b]pyridin-5-yl)thiophen-2-yl)methyl)morpholine]: the IC50 in test [1] came out at 4080 nM; in test [2], 8900 nM. The corresponding values for `CCCN1CC=C(c2c[nH]c3ncc(-c4ccc(CN5CCOCC5)s4)cc23)CC1` [Example 7, 4-((5-(3-(1-Propyl-1,2,3,6-tetrahydropyridin-4-yl)-1H-pyrrolo[2,3-b]pyridin-5-yl)thiophen-2-yl)methyl)morpholine] are 1910 nM and 4250 nM. On the same counts, the results for `CC(=O)N1CC=C(c2c[nH]c3ncc(-c4ccc(CN5CCOCC5)s4)cc23)CC1` [Example 8, 1-(4-(5-(5-(Morpholinomethyl)thiophen-2-yl)-1H-pyrrolo[2,3-b]pyridin-3-yl)-3,6-dihydropyridin-1(2H)-yl)ethan-1-one] are 140 nM and 660 nM. The corresponding values for `CCCCC(=O)N1CC=C(c2c[nH]c3ncc(-c4ccc(CN5CCOCC5)s4)cc23)CC1` [Example 9, 1-(4-(5-(5-(Morpholinomethyl)thiophen-2-yl)-1H-pyrrolo[2,3-b]pyridin-3-yl)-3,6-dihydropyridin-1(2H)-yl)pentan-1-one] are 330 nM and 510 nM. As to `CC(C)CC(=O)N1CC=C(c2c[nH]c3ncc(-c4ccc(CN5CCOCC5)s4)cc23)CC1` [Example 10, 3-Methyl-1-(4-(5-(5-(morpholinomethyl)thiophen-2-yl)-1H-pyrrolo[2,3-b]pyridin-3-yl)-3,6-dihydropyridin-1(2H)-yl)butan-1-one], the IC50 in test [1] was 75 nM; in test [2], 130 nM. The corresponding values for `CC(C)NC(=O)N1CC=C(c2c[nH]c3ncc(-c4ccccc4)cc23)CC1` [Example 11, N-isopropyl-4-(5-phenyl-1H-pyrrolo[2,3-b]pyridin-3-yl)-5,6-dihydropyridine-1(2H)-carboxamide] are 24 nM and 8200 nM. The corresponding values for `COc1ccc(-c2cnc3[nH]cc(C4=CCN(C(=O)NC(C)C)CC4)c3c2)cc1` [Example 12, N-isopropyl-4-(5-(4-methoxyphenyl)-1H-pyrrolo[2,3-b]pyridin-3-yl)-3,6-dihydropyridine-1(2H)-carboxamide] are 29 nM and 2200 nM. The corresponding values for `CC(C)NC(=O)N1CC=C(c2c[nH]c3ncc(-c4ccc(F)cc4)cc23)CC1` [Example 13, 4-(5-(4-Fluorophenyl)-1H-pyrrolo[2,3-b]pyridin-3-yl)-N-isopropyl-3,6-dihydropyridine-1(2H)-carboxamide] are 31 nM and 6800 nM. For `COc1cccc(-c2cnc3[nH]cc(C4=CCN(C(=O)NC(C)C)CC4)c3c2)c1` [Example 14, N-isopropyl-4-(5-(3-methoxyphenyl)-1H-pyrrolo[2,3-b]pyridin-3-yl)-3,6-dihydropyridine-1(2H)-carboxamide], the IC50 in test [1] is 15 nM; in test [2] it was over 10000 nM. The corresponding values for `CC(C)NC(=O)N1CC=C(c2c[nH]c3ncc(-c4cccc(F)c4)cc23)CC1` [Example 15, 4-(5-(3-Fluorophenyl)-1H-pyrrolo[2,3-b]pyridin-3-yl)-N-isopropyl-3,6-dihydropyridine-1(2H)-carboxamide] are 11 nM and over 10000 nM. Turning to `Cc1ccc(-c2cnc3[nH]cc(C4=CCN(C(=O)NC(C)C)CC4)c3c2)cc1` [Example 16, N-isopropyl-4-(5-(p-tolyl)-1H-pyrrolo[2,3-b]pyridin-3-yl)-3,6-dihydropyridine-1(2H)-carboxamide], the IC50 came to 36 nM in test [1] and 280 nM in test [2]. The corresponding values for `CC(=O)Nc1ccc(-c2cnc3[nH]cc(C4=CCN(C(=O)NC(C)C)CC4)c3c2)cc1` [Example 17, 4-(5-(4-Acetamidophenyl)-1H-pyrrolo[2,3-b]pyridin-3-yl)-N-isopropyl-3,6-dihydropyridine-1(2H)-carboxamide] are 7.8 nM and 21 nM. The corresponding values for `COc1ccc(-c2cnc3[nH]cc(C4=CCN(C(=O)NC(C)C)CC4)c3c2)cc1OC` [Example 18, 4-(5-(3,4-Dimethoxyphenyl)-1H-pyrrolo[2,3-b]pyridin-3-yl)-N-isopropyl-5,6-dihydropyridine-1(2H)-carboxamide] are 2.5 nM and 45 nM. The corresponding values for `CC(=O)Nc1cccc(-c2cnc3[nH]cc(C4=CCN(C(=O)NC(C)C)CC4)c3c2)c1` [Example 19, 4-(5-(3-Acetamidophenyl)-1H-pyrrolo[2,3-b]pyridin-3-yl)-N-isopropyl-3,6-dihydropyridine-1(2H)-carboxamide] are 6.4 nM and 7 nM.

With `CC(C)NC(=O)N1CC=C(c2c[nH]c3ncc(-c4ccc(CN5CCOCC5)o4)cc23)CC1` [Example 36, N-isopropyl-4-(5-(5-(morpholinomethyl)furan-2-yl)-1H-pyrrolo[2,3-b]pyridin-3-yl)-5,6-dihydropyridine-1(2H)-carboxamide], inhibition in test [2] was half-maximal at 9.3 nM (IC50).

Values taken from patent publication US10239873B2, “7-azaindole or 4,7-diazaindole derivatives as IKKϵ epsilon and TBK1 inhibitor and pharmaceutical composition comprising same” (GREEN CROSS CORPORATION, priority 2015, dated 2019).
